Results on three compounds are retold here after patent US20170209443A1, “ANTI-INFLAMMATORY EFFECT OF ORALLY ACTIVE FYN KINASE INHIBITOR SARA-CATINIB (AZD 0530) AGAINST PARKINSON'S DISEASE AND OTHER RELATED NEURODEGENARATIVE DISEASES” (Iowa State University Research Foundation, Inc., priority 2016, published 2017).

In data set [1] the test system is LPS-primed primary murine microglia. The data set is described as follows: αSyn-induced IL-1β and TNFα production in LPS-primed primary microglia. Particulars: pre-treatment post priming, before αSyn; FIG. 14A. The format is cell-based. On the procedure:
Misfolded proteins can activate the NLRP3 inflammasomes in microglia (Hafner-Bratkovic et al., 2012; Halle et al., 2008). After obtaining and purifying human αSyn (FIG. 15), we determined that endotoxin contamination was minimal, and that an equivalent concentration of LPS could not activate pro-inflammatory signaling in microglia (data not shown). Aggregation of αSyn was performed as previously described (Zhang et al., 2005). LPS-primed primary murine microglia were treated with α-synuclein for 24 h, with or without the pre-treatment of the pan-Caspase inhibitor ZVAD-FMK or the Caspase-1 specific inhibitor ZYVAD-FMK. […] Next, we treated LPS-primed bone marrow-derived macrophages (BMDMs) from WT, NLRP3^−/−, ASC^−/−, Caspase-1^−/− and Caspase-11^−/− mice with aggregated human α-synuclein for 24 h (FIG. 14B). […] By immunoblotting the levels of pro-IL-1β produced upon LPS treatment (FIG. 14C, 14D), we confirmed that none of these proteins played a role in the priming of the NLRP3 inflammasome. Next, we assessed the inflammasome activating ability of aggregated human αSyn in primary murine microglia by staining for ASC in LPS and LPS+αSyn treated microglia. […] We also utilized the ASC-CFP reporter cell line, which overexpresses ASC tagged with cyan fluorescent protein (CFP). NLRP3 inflammasome activation causes ASC to coalesce into a single speck within each cell. We counted the number of ASC-positive specks to measure inflammasome activation. ASC-CFP cells were primed with LPS and treated with aggregated αSyn for 2 h. Endogenous CFP fluorescence was assessed. In the αSyn treated group, specks of ASC were observed, indicating inflammasome activation (FIG. 14G). […] In summary, aggregated αSyn acts as an efficient danger signal to activate the NLRP3 inflammasome. Data from the A53T model and from PD patient lysates provide in vivo relevance as well. We also observed increased Fyn expression within the microglia in PD tissues, when compared to age-matched control tissues (FIG. 16).

In the next data set the test system is MPTP-treated mice. The data set is described as follows: microglia activation (IBA-1) in substantia nigra, acute MPTP mouse model. The format is in vivo, C57 black mice. Particulars: FIG. 27; for expression of IBA-1 in SN tissue (Western blot): oral 5 mg/kg once on days 1 and 2, MPTP 18 mg/kg x 4 i.p., 24 hrs after last MPTP. As for the experimental part:
Thus, we evaluated whether the Sarcanatib attenuates microglial activation in the substantia nigra. C57 black mice were orally administered saracatinib (5 mg/kg, once) on days 1 and 2. On day 2, after sarcanatib administration, mice were subject to acute MPTP regimen. Mice were administered 18 mg/kg MPTP (4 i.p. injections at 2 hour intervals) and control animals received saline. Mice were sacrificed 24 hrs post last MPTP injection. Brain harvested and nigral tissue lysates were subject to Western blot analysis.

Data set [2] concerns immortalized WT microglial cells. The data set is described as follows: aggregated αSyn-induced IL-1β secretion from unprimed immortalized microglial cells. In kind it is cell-based. Particulars: pre-treatment before aggregated αSyn, FIG. 19B. An excerpt:
The current model of the NLRP3 inflammasome postulates a two-step mechanism. A TLR or TNFR1 agonist, acting as the initial signal, induces the expression of pro-[…] and NLRP3 proteins. Subsequently, a second signal causes lysosomal rupture, mitochondrial ROS generation and/or K^+ efflux that acts as a danger signal resulting in the assembly and activation of the inflammasome complex and the processing and secretion of IL-1β into the cell supernatant. Since we observed that αSyn can signal the inflammasome and can also amplify LPS-mediated activation of NLRP3 and pro-IL-1β at the mRNA and protein level, we wondered if it could activate the NLRP3 inflammasome independent of an LPS-mediated priming step. Unprimed and immortalized WT and Capsase-1^−/− microglial cells were treated with aggregated αSyn for 4 h. As assessed via immunoblot, aggregated αSyn induced pro-IL-1β and NLRP3 to equivalent levels in both cell types (FIG. 19A). It also brought about the secretion of IL-1β in WT, and to a strikingly lower extent in the Caspase-1 deficient microglial cells. […] We next utilized primary BMDMs from WT, NLRP3^−/−, Caspase-1^−/− and Caspase-11^−/− mice to test the ability of αSyn to activate the NLRP3 inflammasome in them. As expected, we saw no genotypic difference in the ability of macrophages to induce pro-IL-1β and import αSyn (FIG. 19C). […]

The test system of data set [3] is microglial cell line. Briefly: cell viability assay in microglial cell line. In kind it is cell-based. Particulars: FIG. 26A. As for the experimental part: (§1) In this study microglial cell line were pretreated with 1-30 μM Saracatinib, a Fyn kinase inhibitor followed by aggregated α-synuclein (1 μM) for 24 hours in a 96 well plate.
In data set [4] the test system is microglial cell line. The data set is described as follows: Griess assay, aggregated α-synuclein induced nitrite production. In kind it is cell-based. Particulars: FIG. 26B. As for the experimental part: Nitric oxide production by primary microglia was measured indirectly by quantification of nitrite in the supernatant using the Griess reagent (Sigma Aldrich). Microglia were plated in poly-D-lysine-coated 96-well plates at 1×10^5 cells/well. Cells were treated with 100 ng/mL of LPS for 24 h and after 100 μL of supernatant was collected from each well, an equal volume of the Griess reagent was added. The samples were incubated on a plate shaker at room temperature for 15 min until a stable color was obtained. The absorbance at 540 nm was measured using a Synergy 2 multi-mode microplate reader (BioTek Instruments) and the nitrite concentration was determined from a sodium nitrite standard curve.
as §1

Data set [5] concerns microglial cell line. Briefly: Luminex cytokine assay, aggregated α-synuclein induced pro-inflammatory cytokines. The format is cell-based. Particulars: 1-30 μM pretreatment, aggregated α-synuclein (1 μM) 24 hours; FIG. 26C. As for the experimental part:
Primary microglia obtained from wild-type, PKCδ^−/− and Fyn^−/− mice were seeded in poly-D-lysine-coated 96-well plates at 1×10^5 cells/well. The cells were treated for 24 h with 100-200 ng/mL LPS or 10 ng/mL TNFα. After treatment, 50 μL of supernatant from each well was collected and frozen at −80° C. The levels of cytokines and chemokines in the supernatants were determined using the Luminex bead-based immunoassay platform (Vignali 2000) and pre-validated multiplex kits (Milliplex mouse cytokine panel Millipore) according to the manufacturer's instructions.
as §1

SMILES strings stand for the structures. Entries after “also recorded” stand apart in the source; their conditions may differ. Residues, ends and D or L forms follow the SMILES beside them. *: point of attachment. Cbz = O=C(OCc1ccccc1)*; CH2F = FC*

As to `COC(=O)C[C@H](NC(=O)[C@H](C)NC(=O)[C@@H](NC(=O)OCc1ccccc1)C(C)C)C(=O)CF` [ZVAD-FMK] (Cbz-Val-Ala-Asp(OMe)-CH2F), in data set [1], the “secretion/production of TNFα” value is given as “only marginally reduced”; the “αSyn-induced IL-1β cleavage and secretion” value is “reduced in the group pre-treated with the Caspase inhibitors”.

With `COC(=O)C[C@H](NC(=O)[C@H](C)NC(=O)[C@@H](NC(=O)[C@H](Cc1ccc(O)cc1)NC(=O)OCc1ccccc1)C(C)C)C(=O)CF` [ZYVAD-FMK], in data set [1], the “secretion/production of TNFα” value is listed as “only marginally reduced”; the “αSyn-induced IL-1β cleavage and secretion” value is recorded as “reduced in the group pre-treated with the Caspase inhibitors”.

As to `CN1CCN(CCOc2cc(OC3CCOCC3)c3c(Nc4c(Cl)ccc5c4OCO5)ncnc3c2)CC1` [Saracatinib], in the data set on MPTP-treated mice (MPTP-treated mice), the “activation of microglia in the substantia nigra” value was “blocked activation of microglia”. In addition, in the data set with MPTP-treated mice, the “expression of IBA-1 in SN tissue (Western blot)” value is “not in Saracatinib and MPTP-treated animals”. Moreover, the “expression of IBA-1 in SN tissue (Western blot)” value in the data set on MPTP-treated mice (listed as saracatinib) is recorded as “attenuated the expression of IBA-1”. Besides, the “αSyn-induced secretion of IL-1β” value in data set [2] was “inhibited by pre-treatment with the Fyn inhibitor Saracatinib in a dose-dependent manner; also recorded: inhibited with pretreatment of the Fyn inhibitor Saracatinib in a dose dependent manner”. In addition, in the data set on microglial cell line [3] (1-30 μM pretreatment, then aggregated α-synuclein (1 μM) for 24 hours), the cytotoxic cell death entry is reported as “did not induce cytotoxic cell death”. Moreover, the cell death result in the data set with microglial cell line [3] (low dose) is listed as “not associated with cell death”. The “nitrite production induced by aggregated α-synuclein” value with microglial cell line [4] (10 μM dose) is recorded as “attenuates the nitrite production”. Further, the “aggregated α-synuclein induced nitrite production” value with microglial cell line [4] (1-30 μM pretreatment, aggregated α-synuclein (1 μM) 24 hours) is given as “significantly blocked aggregated α-synuclein induced nitrite production in a dose-dependent manner”. In addition, in the data set with microglial cell line [5], the “IL-1β production induced by aggregated α-synuclein” value was “significantly attenuated; also recorded: attenuates the secretion”, the “IL-12 production induced by aggregated α-synuclein” value is “significantly attenuated; also recorded: attenuates the secretion” and the “TNF-α production induced by aggregated α-synuclein” value is reported as “significantly attenuated; also recorded: attenuates the secretion”.
